The test system of the first experiment is SARS-CoV-2 strain USA-WA1/2020. Kind of experiment: microbe, parasite or virus in culture. Particulars: Severe acute respiratory syndrome coronavirus 2, HeLa-ACE2, 24 h, HeLa-ACE2 cells, SARS-CoV-2 infection, 24 h; class symbols; read-out: EC50, uM (Hela). In kind it is cell-based.
For orientation: EC50 means the midpoint of the concentration-response curve. For the compound `CC(C)C[C@H](NC(=O)c1cn2ccccc2n1)C(=O)N[C@@H](C[C@@H]1CCNC1=O)C(=O)COC(F)(F)F` [Compound 202, N-((S)-4-methyl-1-oxo-1-(((S)-3-oxo-1-((S)-2-oxopyrrolidin-3-yl)-4-(trifluoromethoxy)butan-2-yl)amino)pentan-2-yl)imidazo[1,2-a]pyridine-2-carboxamide], the EC50 lay in the range of 0.05 to 0.2 µM.
Consider `CC(C)C[C@H](NC(=O)C(=O)N[C@@H]1CCCc2ccccc21)C(=O)N[C@@H](C[C@@H]1CCNC1=O)C(=O)COc1c(F)c(F)cc(F)c1F` [Compound 147, N1-((S)-4-methyl-1-oxo-1-(((S)-3-oxo-1-((S)-2-oxopyrrolidin-3-yl)-4-(2,3,5,6-tetrafluorophenoxy)butan-2-yl)amino)pentan-2-yl)-N2-((R)-1,2,3,4-tetrahydronaphthalen-1-yl)oxalamide], for which the EC50 was 0.5 to 1 µM.
For `CC[C@@H](O)C(=O)N1C[C@H]2[C@@H]([C@H]1C(=O)N[C@@H](C[C@@H]1CCNC1=O)C(=O)COC(F)(F)F)C2(C)C` [Compound 368, (1R,2S,5S)-3-((R)-2-hydroxybutanoyl)-6,6-dimethyl-N-((S)-3-oxo-1-((S)-2-oxopyrrolidin-3-yl)-4-(trifluoromethoxy)butan-2-yl)-3-azabicyclo[3.1.0]= hexane-2-carboxamide], the EC50 was in the range of 0.05 to 0.2 µM.
Consider `CC(C)C[C@H](NC(=O)C(=O)NC1(CO)CC1)C(=O)N[C@@H](C[C@@H]1CCNC1=O)C(=O)COC(F)(F)F` [Compound 231, Nl-(l-(hydroxymethyl)-cyclopropyl)-N2-((S)-4-methyl-1-oxo-1-(((S)-3-oxo-1-((S)-2-oxopyrrolidin-3-yl)-4-(trifluoromethoxy)butan-2-yl)amino)pentan-2-yl)oxalamide], for which the EC50 lay within 0.5 to 1 µM.
Take `CO[C@@H](CC(C)C)C(=O)N1CC2(CC2)C[C@H]1C(=O)N[C@@H](C[C@@H]1CCNC1=O)C(=O)COC(F)(F)F` [Compound 339, (S)-5-((S)-2-methoxy-4-methylpentanoyl)-N-((S)-3-oxo-1-((S)-2-oxopyrrolidin-3-yl)-4-(trifluoromethoxy)butan-2-yl)-5-azaspiro[2.4]heptane-6-carboxamide]: the EC50 lay in the range of 0.05 to 0.2 µM.
In the case of `CC(C)C[C@H](NC(=O)C(=O)Nc1c(C2CC2)cccc1C1CC1)C(=O)N[C@@H](C[C@@H]1CCNC1=O)C(=O)COC(F)(F)F` [Compound 185, N1-(2,6-dicyclopropylphenyl)-N2-((S)-4-methyl-1-oxo-1-(((S)-3-oxo-1-((S)-2-oxopyrrolidin-3-yl)-4-(trifluoromethoxy)butan-2-yl)amino)pentan-2-yl)oxalamide], the EC50 is < 0.05 µM.

Still in this experiment, the particulars now being: Severe acute respiratory syndrome coronavirus 2, HeLa-ACE2, 24 h, HeLa-ACE2 cells, SARS-CoV-2 infection, 24 h; read-out: EC50, uM (Hela).
For `[2H]C([2H])(CCCC)C(=O)N1CC2(CC2)C[C@H]1C(=O)N[C@@H](C[C@@H]1CCNC1=O)C(=O)COC(F)(F)F` [Compound 740, (S)-5-(hexanoyl-2,2-d2)-N-((S)-3-oxo-1-((S)-2-oxopyrrolidin-3-yl)-4-(trifluoromethoxy)butan-2-yl)-5-azaspiro[2.4]heptane-6-carboxamide], the concentration giving a half-maximal response (EC50) is < 0.05 µM.
Take `CC(C)C[C@H](C(=O)N1CC2(CC2)C[C@H]1C(=O)N[C@@H](C[C@@H]1CCNC1=O)C(=O)COC(F)(F)F)N(C)C(=O)OC(C)(C)C` [Compound 645, tert-butyl methyl((R)-4-methyl-1-oxo-1-((S)-6-(((S)-3-oxo-1-((S)-2-oxopyrrolidin-3-yl)-4-(trifluoromethoxy)butan-2-yl)carbamoyl)-5-azaspiro[2.4]heptan-5-yl)pentan-2-yl)carbamate]: the EC50 lay in the range of 0.05 to 0.2 µM.
Still for that read-out and setting: the value for `[2H]C([2H])([2H])CCCC(=O)N1CC2(CC2)C[C@H]1C(=O)N[C@@H](C[C@@H]1CCNC1=O)C(=O)COC(F)(F)F` [Compound 763, (S)-N-((S)-3-oxo-1-((S)-2-oxopyrrolidin-3-yl)-4-(trifluoromethoxy)butan-2-yl)-5-(pentanoyl-5,5,5-d3)-5-azaspiro[2.4]heptane-6-carboxamide] was < 0.05 µM; that for `CC(C)C[C@H](NC(=O)c1ncon1)C(=O)N[C@@H](C[C@@H]1CCNC1=O)C(=O)COC(F)(F)F` [Compound 580, N-((S)-4-methyl-1-oxo-1-(((S)-3-oxo-1-((S)-2-oxopyrrolidin-3-yl)-4-(trifluoromethoxy)butan-2-yl)amino)pentan-2-yl)-1,2,4-oxadiazole-3-carboxamide] was 0.2 to 0.5 µM.
`O=C1NCC[C@H]1C[C@H](NC(=O)[C@@H]1CC2(CC2)CN1C(=O)C1(O)CCC(F)(F)CC1)C(=O)COC(F)(F)F` [Compound 421, (S)-5-(4,4-difluoro-1-hydroxycyclohexane-1-carbonyl)-N—((S)-3-oxo-1-((S)-2-oxopyrrolidin-3-yl)-4-(trifluoromethoxy)butan-2-yl)-5-azaspiro[2.4]heptane-6-carboxamide]: the EC50 was < 0.05 µM.
`CC(C)C[C@@H](O)C(=O)N(C(=O)[C@@H]1C[C@@]2(C)C[C@H]2N1)[C@@H](C[C@@H]1CCNC1=O)C(=O)COC(F)(F)F` [Compound 449, (1R,3S,5R)-2-((R)-2-hydroxy-4-methylpentanoyl)-5-methyl-N-((S)-3-oxo-1-((S)-2-oxopyrrolidin-3-yl)-4-(trifluoromethoxy)butan-2-yl)-2-azabicyclo[3.1.0]-hexane-3-carboxamide]: the EC50 is 0.05 to 0.2 µM.
Still for that read-out and setting: with `[2H]C([2H])([2H])C(C(=O)N1CC2(CC2)C[C@H]1C(=O)N[C@@H](C[C@@H]1CCNC1=O)C(=O)COC(F)(F)F)C([2H])([2H])[2H]` [Compound 739, (S)-5-(2-(methyl-d3)propanoyl-3,3,3-d3)-N-((S)-3-oxo-1-((S)-2-oxopyrrolidin-3-yl)-4-(trifluoromethoxy)butan-2-yl)-5-azaspiro[2.4]heptane-6-carboxamide] the figure was 0.05 to 0.2 µM; with `CC(C)C[C@@H](O)C(=O)N1CC(F)(F)C[C@H]1C(=O)N[C@@H](C[C@@H]1CCNC1=O)C(=O)COC(F)(F)F` [Compound 751, (S)-4,4-difluoro-1-((R)-2-hydroxy-4-methylpentanoyl)-N-((S)-3-oxo-1-((S)-2-oxopyrrolidin-3-yl)-4-(trifluoromethoxy)butan-2-yl)pyrrolidine-2-carboxamide], 0.05 to 0.2 µM; with `CNC(=O)N[C@H](CC(C)C)C(=O)N1CC2(CC2)C[C@H]1C(=O)N[C@@H](C[C@@H]1CCNC1=O)C(=O)COC(F)(F)F` [Compound 435, (S)-5-((methylcarbamoyl)-D-leucyl)-N—((S)-3-oxo-1-((S)-2-oxopyrrolidin-3-yl)-4-(trifluoromethoxy)butan-2-yl)-5-azaspiro[2.4]heptane-6-carboxamide], 0.2 to 0.5 µM.
The same measure, in the same setting: with `O=C1NCC[C@H]1C[C@H](NC(=O)[C@@H]1[C@H]2CCC[C@H]2CN1C(=O)c1noc2cc(F)ccc12)C(=O)COC(F)(F)F` [Compound 611, (1S,3aR,6aS)-2-(6-fluorobenzo[d]isoxazole-3-carbonyl)-N-((S)-3-oxo-1-((S)-2-oxopyrrolidin-3-yl)-4-(trifluoromethoxy)butan-2-yl)octahydrocyclopenta[c]pyrrole-1-carboxamide] the figure was < 0.05 µM.
On the same count and under the same terms, with `CC(C)(C)NC(=O)C(=O)N1CC2(CC2)C[C@H]1C(=O)N[C@@H](C[C@@H]1CCNC1=O)C(=O)COC(F)(F)F` [Compound 502, (S)-5-(2-(tert-butylamino)-2-oxoacetyl)-N-((S)-3-oxo-1-((S)-2-oxopyrrolidin-3-yl)-4-(trifluoromethoxy)butan-2-yl)-5-azaspiro[2.4]-heptane-6-carboxamide] the figure was < 0.05 µM.

(Values after patent US11708348B2, “Protease inhibitors for treatment of coronavirus infections” (The Scripps Research Institute, priority 2021, dated 2023).)
